Patent EP0182135A2, “Novel bis-(substituted amino) anthraquinones” (AMERICAN CYANAMID COMPANY, priority 1984, dated 1986)
Where “and” joins values, the source holds several entries; their conditions need not be identical. Equal entries are not always repeated. Structures can show the parent of a compound that is named as a salt.

Experiments:
[1] = system: melanotic melanoma B16; assay: Melanotic Melanoma B16 Test; assay type: in vivo, C57BC/6 mice
Protocol: The animals used were C57BC/6 mice, all of the same sex, weighing a minimum of 17 g and all within a 3 g weight range. There were normally 10 animals per test group. A 1.0 g portion of melanotic melanoma B16 tumor was homogenized in 10 ml of cold balanced salt solution and a 0.5 ml aliquot of the homogenate was implanted intraperitoneally into each of the test mice. The test compounds were administered intraperitoneally on days one through nine (relative to tumor inoculation) at various doses. The animals were weighed and survivors recorded on a regular basis for 60 days. The median survival time and the ratio of survival time for treated (T)/control (C) animals were calculated. The positive control compound was 1,4-dihydroxy-5,8-bis[[2-(2-hydroxyethylamino)-ethyl]amino]anthraquinone, dihydrochloride (U.S. Patent 4,197,249) given at the indicated doses by injection.

[2] = system: lymphocytic leukemia P388; assay: Lymphocytic Leukemia P388 Test; assay type: in vivo, DBA/2 mice
Protocol: Lymphocytic Leukemia P388 Test
The animals used were DBA/2 mice all of one sex, weighing a minimum of 17 g and all within a 3 g weight range. There were 5 or 6 animals per test group. The tumor transplant was by intraperitoneal injection of 0.1 ml of dilute ascitic fluid containing 10^6 cells of lymphocytic leukemia P388. The test compounds were administered intraperitoneally on days 1, 5 and 9 (relative to tumor inoculation) at various doses. The animals were weighed and survivors were recorded on a regular basis for 30 days. The median survival time and the ratio of survival time for treated (T)/control (C) animals were calculated. The positive control compound was 1,4-dihydroxy-5,8-bis--[ [2-(2-hydroxyethylamino)ethyl ]amino]anthraquinone, dihydrochloride (U.S. Patent 4,197,249) given at the indicated doses by injection.

[3] = Dose 0.05 mg/kg intraperitoneally on days one through nine
[4] = Dose 0.2 mg/kg intraperitoneally on days one through nine
[5] = Dose 0.8 mg/kg intraperitoneally on days one through nine
[6] = Dose 3 mg/kg intraperitoneally on days one through nine
[7] = Dose 12 mg/kg intraperitoneally on days one through nine
[8] = Dose 0.025 mg/kg intraperitoneally on days 1, 5 and 9
[9] = Dose 0.1 mg/kg intraperitoneally on days 1, 5 and 9
[10] = Dose 0.4 mg/kg intraperitoneally on days 1, 5 and 9
[11] = Dose 1.6 mg/kg intraperitoneally on days 1, 5 and 9
[12] = Dose 6.4 mg/kg intraperitoneally on days 1, 5 and 9
[13] = Dose 25 mg/kg intraperitoneally on days one through nine
[14] = Dose 100 mg/kg intraperitoneally on days one through nine
[15] = Dose 3 mg/kg intraperitoneally on days 1, 5 and 9, 3 mg/kg
[16] = Dose 12 mg/kg intraperitoneally on days 1, 5 and 9, 12 mg/kg
[17] = Dose 50 mg/kg intraperitoneally on days 1, 5 and 9, 50 mg/kg
[18] = Dose 200 mg/kg intraperitoneally on days 1, 5 and 9
[19] = Dose 50 mg/kg intraperitoneally on days one through nine
[20] = Dose 50 mg/kg intraperitoneally on days 1, 5 and 9
[21] = Dose 0.025 mg/kg by injection, dihydrochloride, 0.025 mg/kg
[22] = Dose 0.1 mg/kg by injection, dihydrochloride, 0.1 mg/kg
[23] = Dose 0.4 mg/kg by injection, dihydrochloride, 0.4 mg/kg
[24] = Dose 1.6 mg/kg by injection, dihydrochloride, 1.6 mg/kg
[25] = Dose 0.025 mg/kg intraperitoneally on days 1, 5 and 9, dihydrochloride, 0.025 mg/kg
[26] = Dose 0.1 mg/kg intraperitoneally on days 1, 5 and 9, dihydrochloride, 0.1 mg/kg
[27] = Dose 0.4 mg/kg intraperitoneally on days 1, 5 and 9, dihydrochloride, 0.4 mg/kg
[28] = Dose 1.6 mg/kg intraperitoneally on days 1, 5 and 9, dihydrochloride, 1.6 mg/kg

O=C1c2c(OC(=O)C(F)(F)F)ccc(OC(=O)C(F)(F)F)c2C(=O)c2c(N(CCN(CCOC(=O)C(F)(F)F)C(=O)C(F)(F)F)C(=O)C(F)(F)F)ccc(N(CCN(CCOC(=O)C(F)(F)F)C(=O)C(F)(F)F)C(=O)C(F)(F)F)c21 [N,N'-(5,8-Dihydroxy-l,4-anthraquinonylene)bis[2,2,2-trifluoro-N-[2,(2,2,2-trifluoro-N-2-hydroxyethyl-acetamido)ethyl]acetamide]tetrakis(trifluoroacetate) (tetraester)]
Median Survival [1, 3]: 27 days | T/C x 100 (%) [1, 3]: 132% | Median Survival [1, 4]: 27 days | T/C x 100 (%) [1, 4]: 132% | Median Survival [1, 5]: 34 days | T/C x 100 (%) [1, 5]: 166% | Median Survival [1, 6]: >52 days | T/C x 100 (%) [1, 6]: >254% | Median Survival [1, 7]: 42 days | T/C x 100 (%) [1, 7]: 205% | Median Survival [2, 8]: 13.5 days | T/C x 100 (%) [2, 8]: 117% | Median Survival [2, 9]: 16 days | T/C x 100 (%) [2, 9]: 139% | Median Survival [2, 10]: 15 days | T/C x 100 (%) [2, 10]: 130% | Median Survival [2, 11]: 19.5 days | T/C x 100 (%) [2, 11]: 170% | Median Survival [2, 12]: 26.5 days | T/C x 100 (%) [2, 12]: 230%

CN(C)CCCNC(=S)N(CCO)CCNc1ccc(NCCN(CCO)C(=S)NCCCN(C)C)c2c1C(=O)c1c(O)ccc(O)c1C2=O [N,N"-[(9,10-Dihydro-5,8-dihydroxy-9,10-dioxo-1,4-anthracenediyl)bis(imino-2,1-ethanediyl)]bis[N'-[3-(dimethylamino)propyl]-N-(2-hydroxyethyl)]thiourea]
Median Survival [1, 13]: 27.5 days | T/C x 100 (%) [1, 13]: 146% | Median Survival [1, 14]: 42 days | T/C x 100 (%) [1, 14]: 222% | Median Survival [2, 15]: 13 days | T/C x 100 (%) [2, 15]: 124% | Median Survival [2, 16]: 13.5 days | T/C x 100 (%) [2, 16]: 129% | Median Survival [2, 17]: 19.5 days | T/C x 100 (%) [2, 17]: 186% | Median Survival [2, 18]: 23 days | T/C x 100 (%) [2, 18]: 219%

CC(=O)C(=O)NCCNc1ccc(NCCNC(=O)C(C)=O)c2c1C(=O)c1c(O)ccc(O)c1C2=O [N,N'-[9,10-Dihydro-5,8-dihydroxy-9,10-dioxo-1,4-anthracenediyl)bis(imino-2,1-ethanediyl)]bis-[2-oxopropanamide]]
Median Survival [1, 13]: 43.5 days | T/C x 100 (%) [1, 13]: 182% | Median Survival [1, 19]: 41 days | T/C x 100 (%) [1, 19]: 171% | Median Survival [1, 14]: 38 days | T/C x 100 (%) [1, 14]: 158% | Median Survival [2, 20]: 13.5 days | T/C x 100 (%) [2, 20]: 123% | Median Survival [2, 18]: 16.5 days | T/C x 100 (%) [2, 18]: 150%

O=C1c2c(O)ccc(O)c2C(=O)c2c(NCCNCCO)ccc(NCCNCCO)c21 [Positive Control, 1,4-dihydroxy-5,8-bis--[ [2-(2-hydroxyethylamino)ethyl]amino]anthraquinone, dihydrochloride, reference compound]
Median Survival [1, 21]: 28 days and 26 days and 33 days and 28.5 days | T/C x 100 (%) [1, 21]: 137% and 161% and 133% | Median Survival [1, 22]: 36 days and 31.5 days and 39 days and 32 days and 42 days | T/C x 100 (%) [1, 22]: 176% and 166% and 190% and 133% and 195% | Median Survival [1, 4]: 32 days | T/C x 100 (%) [1, 4]: 158% | Median Survival [1, 23]: 36 days and >60 days and 58 days | T/C x 100 (%) [1, 23]: 178% and >293% and >317% and >250% and 270% | Median Survival [1, 5]: 35 days | T/C x 100 (%) [1, 5]: 173% | Median Survival [1, 24]: >60 days and 38 days and 37 days | T/C x 100 (%) [1, 24]: >293% and >297% and 200% and >250% and 172% | Median Survival [2, 25]: 17 days and 18 days and 16 days | T/C x 100 (%) [2, 25]: 170% and 171% and 145% | Median Survival [2, 26]: 25.5 days and 14.5 days and 16.5 days and 21.5 days | T/C x 100 (%) [2, 26]: 255% and 132% and 150% and 205% and 232% | Median Survival ([2]; Dose 0.2 mg/kg intraperitoneally on days 1, 5 and 9): 14.5 days | T/C x 100 (%) ([2]; Dose 0.2 mg/kg intraperitoneally on days 1, 5 and 9, dihydrochloride, 0.2 mg/kg): 153% and 126% | Median Survival [2, 27]: 19.5 days and 27 days and >30 days and 19 days and 26.5 days | T/C x 100 (%) [2, 27]: 205% and 169% and 270% and >273% and 173% and 252% | Median Survival ([2]; Dose 0.8 mg/kg intraperitoneally on days 1, 5 and 9): 18 days | T/C x 100 (%) ([2]; Dose 0.8 mg/kg intraperitoneally on days 1, 5 and 9, dihydrochloride, 0.8 mg/kg): 189% and 156% | Median Survival [2, 28]: >30 days and 19.5 days | T/C x 100 (%) [2, 28]: >316% and >261% and >300% and >273% and >286% and 177% | Median Survival ([2]; Dose 3.2 mg/kg by injection): >30 days | T/C x 100 (%) ([2]; Dose 3.2 mg/kg by injection, dihydrochloride, 3.2 mg/kg): >261% and >316%
